Measured values published in patent US11578013B2, “Nitrification inhibitors” (Lincoln University, priority 2020, dated 2023).

Legend:
[1] = tested on: nitrification in the soil; test: Laboratory soil incubation, Templeton sandy loam with synthetic cow urine, nitrate-N; details: for nitrate-N concentration in the soil compared with urine alone or urine+DMSO / reducing the nitrification rate compared with DCD: day 30; for reducing the nitrification rate compared with DCD: compound at 2 kg/ha vs DCD at 10 kg/ha; for % reduction by NI (nitrate-N): vs urine alone, 30 days; for Nitrate-N: 30 days of incubation
Description: A Templeton sandy loam was used in this experiment. 500 g of soil (dry weight basis) was packed into a pottle. 50 mL of synthetic cow urine with an N concentration of 7 g N/L (comprising about 87% urea-N and 13% glycine-N) was applied to the soil (equivalent to 700 kg N/ha on weight basis, assuming bulk density of 1 g/cm^3 in the top 10 cm of soil). The 700 kg N/ha application was used to simulate the urine-N application rate under a typical dairy cow urine patch in a grazed pasture.
Control treatments also added to soil were: • urine alone (50 mL); • DMSO (equivalent to 0.9 mL/500 g soil)+urine (50 mL) to determine the effect of DMSO on nitrification rate; • water alone (50 mL) (simulating areas of the soil where no urine was deposited).
Pottles were covered with lids with breathing holes to allow for gas exchange during incubation. Pottles were incubated at 12° C. Soil moisture content was maintained at field capacity by adjusting on weight basis twice a week.
Soil samples were collected and were then thoroughly mixed and subsamples were extracted in a potassium chloride solution and analysed for mineral-N. Soil moisture content was also determined. Samples were taken at 30 days after the start of incubation. […]

nitrification = test: Table 1 summary: compounds found to work or not work as nitrification inhibitors, Inhib(%); parameters: concentration or dose not given beside the values; details: test and rate not given
Description: The phenotypic screening involved assessing the nitrification inhibition potency of the selected 5000 compounds against a key ammonia oxidizing bacterium responsible for ammonia oxidation in the soil, Nitrosomonas europaea, in 96-well microtiter plates. N. europaea cells were grown in the presence of an ammonium source, and the potential of putative nitrification inhibitors to inhibit the production of nitrite (NO2) was measured relative to untreated cells.
A summary of selected compounds initially found to either work or not work as nitrification inhibitors is detailed in Table 1 below.

[2] = tested on: N2O emissions in the soil; test: Field study of nitrous oxide emissions, static gas chamber method, urine-treated pasture soil
Description: (§1) This study was conducted on the Lincoln University Research Dairy Farm, and the soil was a Templeton sandy loam with established perennial ryegrass (Lolium perenne) and white clover (Trifolium repens.) pasture. Metal rings (500 mm diameter and 200 mm height) were inserted into the ground. A water trough sitting on top of the metal rings allowed the placement of static chambers sitting on top of the water trough to provide a gas-tight seal to allow N2O gas sampling.
Synthetic urine with a nitrogen concentration of 7 g N/L was applied to the soil plots confined within the metal rings at the equivalent rate of 700 kg N/ha. […] The plots were irrigated with irrigation water in accordance with local dairy farming practice.
(§2) The gas chamber (500 mm diameter and 120 mm height) was constructed of a metal cylinder insulated with 2.5 cm thick polystyrene foam to avoid heating of the atmosphere in the chamber during sampling. During periods of N2O measurement, the edge of the chamber was placed inside the small water trough which was mounted around the top of each metal ring for gas sampling. At each sampling time, the chamber was placed on top of the soil ring for a total of 40 minutes, and 3 samples, 20 minutes apart, were taken using a syringe through a rubber septum on top of the gas chamber. Samples were taken twice weekly. Each sampling was carried out during the middle of the day between 12:00 h to 14:00 h (Di et al., 2007). The N2O concentration in the samples was analysed using a gas chromatograph (SRI8610C with an Electron Capture Detector (ECD) (SRI Instruments, USA) linked to a Gilson 222XL autosampler (Gilson, France)
as §1, with “To determine the effect of treating the soil with 2-ethynyl-5-methoxypyridine on nitrous oxide emissions under field soil conditions, a field study was conducted using the static gas chamber method. This” for “This”
Synthetic urine with a nitrogen concentration of 7 g N/L was applied to the soil plots confined within the metal rings at the equivalent rate of 700 kg N/ha. 196.25 mg or 39.2 mg of 2-ethynyl-5-methoxypyridine were dissolved in 2 mL DMSO, mixed with 1000 mL of water, and then sprayed on to the mini-plots at the rates of 196.25 mg/plot and 39.2 mg/plot, equivalent to 10 kg/ha and 2 kg/ha, respectively. The plots were irrigated with irrigation water in accordance with local dairy farming practice.
as §2, with “France).” for “France)”
To determine the effect of treating the soil with 3-ethynylpyridine 1-oxide on nitrous oxide emissions under field soil conditions, a field study was conducted using the static gas chamber method. […]

SMILES: C#Cc1ccc(C#C)cc1 [1,4-diethynylbenzene]
- nitrate-N concentration in the soil compared with urine alone or urine+DMSO ([1]; 2 kg/ha): significantly lower nitrate-N concentrations
- reducing the nitrification rate compared with DCD [1]: more effective than DCD
- Inhib(%) (nitrification): 100%

SMILES: C#CC1CCN(C(C)=O)CC1 [1-(4-ethynyl-1-piperidinyl)ethanone, reference compound]
- Inhib(%) (nitrification): 0%

SMILES: C#Cc1ccc(OCC)cc1 [1-ethoxy-4-ethynylbenzene]
- nitrate-N concentration in the soil compared with urine alone or urine+DMSO ([1]; 2 kg/ha): significantly lower nitrate-N concentrations
- reducing the nitrification rate compared with DCD [1]: more effective than DCD
- Inhib(%) (nitrification): 100%

SMILES: C#Cc1ccc(OC(F)(F)F)cc1 [1-ethynyl-4-(trifluoromethoxy)benzene, reference compound]
- Inhib(%) (nitrification): 8%

SMILES: C#Cc1ccc(OCCCCC)cc1 [1-ethynyl-4-pentoxybenzene, reference compound]
- Inhib(%) (nitrification): 2%

SMILES: C#Cc1ccc(C#C)nc1 [2,5-diethynylpyridine]
- nitrate-N concentration in the soil compared with urine alone or urine+DMSO ([1]; 2 kg/ha): lower nitrate-N concentrations
- Inhib(%) (nitrification): 100%

SMILES: C#Cc1cnc(C#C)nc1 [2,5-diethynylpyrimidine, reference compound]
- Inhib(%) (nitrification): 60%

SMILES: C#Cc1ncccn1 [2-Ethynyl 1,3 Diazine, 2-Ethynylpyrimidine]
- % reduction by NI (nitrate-N) ([1]; 0.5 kg/ha): 96%
- % reduction by NI (nitrate-N) ([1]; 1 kg/ha): 98%
- % reduction by NI (nitrate-N) ([1]; 2 kg/ha): 84%
- reducing the nitrification rate compared with DCD [1]: more effective than DCD
- Nitrate-N ([1]; urine + inhibitor at 0.5 kg/ha): 17.5 mg N/kg soil
- Nitrate-N ([1]; urine + inhibitor at 1 kg/ha): 9.1 mg N/kg soil
- Nitrate-N ([1]; urine + inhibitor at 2 kg/ha): 31.8 mg N/kg soil
- % reduction by NI (N2O emissions) ([2]; 2 kg/ha, vs urine alone): 91%
- nitrous oxide reductions compared with DCD ([2]; sprayed onto urine-treated pasture soil): greater than that by DCD
- N2O emissions ([2]; urine + inhibitor at 2 kg/ha): 1.2 kg N2O—N/ha
- N2O emissions ([2]; urine + inhibitor at 10 kg/ha): 0.53 kg N2O—N/ha
- Inhib(%) (nitrification): 94%

SMILES: C#Cc1cnc(OC)cn1 [2-Ethynyl-5-methoxypyrazine]
- melting point: 41.3 to 42.7 °C
- nitrate-N concentration in the soil compared with urine alone or urine+DMSO ([1]; 1 kg/ha): lower nitrate-N concentrations
- nitrate-N concentration in the soil compared with urine alone or urine+DMSO ([1]; 2 kg/ha): lower nitrate-N concentrations

SMILES: C#Cc1ncc(OC)cn1 [2-Ethynyl-5-methoxypyrimidine]
- melting point: 56.2 to 57.2 °C
- nitrate-N concentration in the soil compared with urine alone or urine+DMSO ([1]; 1 kg/ha): lower nitrate-N concentrations
- nitrate-N concentration in the soil compared with urine alone or urine+DMSO ([1]; 2 kg/ha): significantly lower nitrate-N concentrations
- reducing the nitrification rate compared with DCD [1]: more effective than DCD
